molecular target: MAPK14 (human) (UniProt Q16539); assay: Inhibition of MAPK14 Kinase Activity
Sequence (Q16539 whole entry, looked up): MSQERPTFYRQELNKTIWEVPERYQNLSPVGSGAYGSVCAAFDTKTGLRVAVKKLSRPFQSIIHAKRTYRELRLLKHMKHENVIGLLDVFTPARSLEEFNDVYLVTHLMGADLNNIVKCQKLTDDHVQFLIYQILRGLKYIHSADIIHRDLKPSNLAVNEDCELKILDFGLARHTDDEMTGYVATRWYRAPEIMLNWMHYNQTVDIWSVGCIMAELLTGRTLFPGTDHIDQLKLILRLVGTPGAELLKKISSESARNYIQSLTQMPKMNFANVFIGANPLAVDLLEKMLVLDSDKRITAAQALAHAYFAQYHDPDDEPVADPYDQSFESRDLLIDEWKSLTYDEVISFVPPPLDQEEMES

| Compound | IC50 |
| --- | --- |
| O=C1CCC(Oc2ccc(Cl)cc2)CN1C1C(Cl)CCCC1Cl (stereo unspecified) | ≤ 10 µM |
| CN1CC(Cc2ccc(F)cc2F)CN(c2c(Cl)ccc(N)c2Cl)C1=O (stereo unspecified) | ≤ 10 µM |
| O=C1CCC(Cc2ccc3ccccc3c2)CN1c1c(Cl)ccnc1Cl (stereo unspecified) | ≤ 10 µM |
| CN1CC(Cc2ccccc2F)CN(c2c(Cl)cccc2Cl)C1=O (stereo unspecified) | ≤ 10 µM |
| Cc1ccc(CC2CNC(=O)N(c3c(Cl)cccc3Cl)C2)c(C)c1 (stereo unspecified) | ≤ 10 µM |
| O=C1CCC(Cc2ccc(F)cc2F)CN1C1C(Cl)CC(CO)CC1Cl (stereo unspecified) | ≤ 10 µM |
| Cc1cccc(NC(=O)NCc2ccccc2CC2CCC(=O)N(c3c(Cl)cccc3Cl)C2)c1 (stereo unspecified) | ≤ 10 µM |
| O=C1CSC(Cc2cc(F)cc(F)c2)CN1c1c(Cl)cccc1Cl (stereo unspecified) | ≤ 10 µM |
| O=C(Nc1ccc(CC2CCC(=O)N(c3c(Cl)cccc3Cl)C2)cc1)C1CCCCC1 (stereo unspecified) | ≤ 10 µM |
| O=C1NCC(Cc2ccccc2F)CN1c1c(Cl)cccc1Cl (stereo unspecified) | ≤ 10 µM |
| O=C1CCC(Oc2cc(Cl)cc(Cl)c2)CN1C1C(Cl)CCCC1Cl (stereo unspecified) | ≤ 10 µM |
| CC(C)(C)OC(=O)Nc1cc(Cl)c(N2CC(C(O)c3ccc(F)cc3F)CCC2=O)c(Cl)c1 (stereo unspecified) | ≤ 10 µM |
| O=C1CCC(Sc2cccc3ccccc23)CN1c1c(Cl)csc1Cl (stereo unspecified) | ≤ 10 µM |
| O=C1CCC(Cc2ccc(Cl)cc2)CN1c1c(Cl)ccnc1Cl (stereo unspecified) | ≤ 10 µM |
| Cc1cc(C)cc(OC2CCC(=O)N(c3c(Cl)csc3Cl)C2)c1 (stereo unspecified) | ≤ 10 µM |
| COCOCc1ccccc1CC1CCC(=O)N(c2c(Cl)cccc2Cl)C1 (stereo unspecified) | ≤ 10 µM |
| Cc1cccc(C)c1N1C[C@@H](NS(=O)(=O)c2ccc(F)cc2F)CCC1=O | ≤ 10 µM |
| O=C1CCC(Cc2ccc3ccccc3c2)CN1c1c(Cl)csc1Cl (stereo unspecified) | ≤ 10 µM |
| O=C(O)CCC(=O)Nc1cc(Cl)c(N2CC(Cc3ccc(F)cc3F)CCC2=O)c(Cl)c1 (stereo unspecified) | ≤ 10 µM |

| Compound | IC50 |
| --- | --- |
| O=C1CCC(Oc2ccc(F)cc2F)CN1C1C(Cl)CC(CO)CC1Cl (stereo unspecified) | ≤ 10 µM |
| Nc1sc(Cl)c(N2CC(Sc3ccc(F)cc3F)CCC2=O)c1Cl (stereo unspecified) | ≤ 10 µM |
| COc1ccc(SC2CCC(=O)N(c3c(Cl)csc3Cl)C2)cc1 (stereo unspecified) | ≤ 10 µM |
| O=C1CCC(Cc2ccccc2F)CN1c1c(Cl)cccc1Cl (stereo unspecified) | ≤ 10 µM |
| O=C(c1ccc(F)cc1F)C1CCC(=O)N(c2c(Cl)cccc2Cl)C1 (stereo unspecified) | ≤ 10 µM |
| O=C1CCC(Cc2ccccc2)CN1c1c(Cl)cncc1Cl (stereo unspecified) | ≤ 10 µM |
| Nc1ccc(Cl)c(N2CC(Cc3ccc(F)cc3F)CCC2=O)c1Cl (stereo unspecified) | ≤ 10 µM |
| CCOC(=O)CCNC(=O)c1cc(C)c(N2CC(Cc3ccc(F)cc3F)CCC2=O)c(C)c1 (stereo unspecified) | ≤ 10 µM |
| O=C1CCC(Sc2cc(Cl)cc(Cl)c2)CN1c1c(Cl)csc1Cl (stereo unspecified) | ≤ 10 µM |
| Cc1ccccc1OC1CCC(=O)N(c2c(Cl)ccnc2Cl)C1 (stereo unspecified) | ≤ 10 µM |
| O=C1CCC(Cc2ccc(F)cc2F)CN1C1CCCCC1 (stereo unspecified) | ≤ 10 µM |
| CNc1ccc(Cl)c(N2CC(Cc3ccc(F)cc3F)COC2=O)c1Cl (stereo unspecified) | ≤ 10 µM |
| O=C1CCC(Sc2ccc(F)cc2)CN1c1c(Cl)ccnc1Cl (stereo unspecified) | ≤ 10 µM |
| O=C1CCC(Cc2ccc(F)cc2F)CN1c1c(Cl)cncc1Cl (stereo unspecified) | ≤ 10 µM |
| Nc1cc(Cl)c(N2CC(Cc3ccc(F)cc3F)SCC2=O)c(Cl)c1 (stereo unspecified) | ≤ 10 µM |
| O=C1CCC(Oc2ccc(F)cc2F)CN1C1C(Cl)CC(O)CC1Cl (stereo unspecified) | ≤ 10 µM |
| Nc1ccc(Cl)c(N2CC(Cc3ccc(F)cc3F)CCC2=O)c1 (stereo unspecified) | ≤ 10 µM |
| CC(=O)Nc1ccc(Cl)c(N2CC(Cc3ccc(F)cc3F)CSC2=O)c1Cl (stereo unspecified) | ≤ 10 µM |
| O=C(Cc1ccccc1)NC1CC(Cl)C(N2CC(Oc3ccc(F)cc3F)CCC2=O)C(Cl)C1 (stereo unspecified) | ≤ 10 µM |

| Compound | IC50 |
| --- | --- |
| CN1CC(Cc2ccc(F)cc2F)CN(c2c(Cl)ccc(NC(=O)Cc3ccccc3)c2Cl)C1=O (stereo unspecified) | ≤ 10 µM |
| O=C1CC[C@H](Cc2ccc(F)cc2F)CN1c1c(Cl)cccc1Cl | ≤ 10 µM |
| O=C1COC(Cc2ccccc2)CN1c1c(Cl)cccc1Cl (stereo unspecified) | ≤ 10 µM |
| Cc1cc(C(=O)NCCN(C)C)cc(C)c1N1C[C@@H](Cc2ccc(F)cc2F)C[C@@H](C)C1=O | ≤ 10 µM |
| Cc1ccc(SC2CCC(=O)N(C3C(Cl)CCCC3Cl)C2)cc1 (stereo unspecified) | ≤ 10 µM |
| O=C1CCC(Oc2ccccc2Cl)CN1c1c(Cl)cncc1Cl (stereo unspecified) | ≤ 10 µM |
| C[C@@H]1C[C@H](Cc2ccc(F)cc2F)CN(c2c(Cl)cc(NCCN(C)C)cc2Cl)C1=O | ≤ 10 µM |
| O=C1COC(Cc2ccc(F)cc2F)CN1c1c(Cl)cc(CO)cc1Cl (stereo unspecified) | ≤ 10 µM |
| O=C1CCC(Oc2ccccc2F)CN1c1c(Cl)csc1Cl (stereo unspecified) | ≤ 10 µM |
| O=C1CCC(Sc2ccccc2)CN1C1C(Cl)CCCC1Cl (stereo unspecified) | ≤ 10 µM |
| O=C(Cc1ccccc1)NC1CC(Cl)C(N2CC(Cc3ccc(F)cc3F)CCC2=O)C(Cl)C1 (stereo unspecified) | ≤ 10 µM |
| O=C1NCC(Cc2ccc(F)cc2F)CN1c1c(Cl)cccc1Cl (stereo unspecified) | ≤ 10 µM |
| Cc1ccccc1CC1CN(c2c(Cl)cccc2Cl)C(=O)CO1 (stereo unspecified) | ≤ 10 µM |
| O=C(Cc1ccccc1)Nc1ncc(Cl)c(N2CC(Cc3ccc(F)cc3F)CCC2=O)c1Cl (stereo unspecified) | ≤ 10 µM |
| Cc1ccc(CC2CN(c3c(Cl)cccc3Cl)C(=O)CS2)c(C)c1 (stereo unspecified) | ≤ 10 µM |
| O=C(CNc1cc(Cl)c(N2CC(Cc3ccc(F)cc3F)CCC2=O)c(Cl)c1)NCCO (stereo unspecified) | ≤ 10 µM |
| O=C1OCC(Cc2ccc(F)cc2F)CN1c1c(Cl)cc(CO)cc1Cl (stereo unspecified) | ≤ 10 µM |
| Cc1cccc(C)c1N1CC(CCCc2ccccc2)CCC1=O (stereo unspecified) | ≤ 10 µM |
